These results are taken from patent US4145554A, “3-Nitropyrazole derivatives” (Eli Lilly and Company, priority 1977, dated 1979).

Molecules are shown by their SMILES. Converted amounts (≈) assume the structure as drawn. Where two headings read alike, the source gives them in different places.

The subject of one assay is Mycoplasma gallisepticum. As to the kind of experiment: in vitro tube dilution test (MIC). The class given is cell-based. The note with it: Mycoplasmoides gallisepticum. The source says:
(§1) Our compound, 1-(2-hydroxyethyl)-3-nitro-4-pyrazolecarboxamide, has been extensively tested in vitro to determine the range of microorganisms against which it is active. The table of data below reports the minimum inhibitory concentration (MIC) at which the compound is effective in controlling a variety of microorganisms in a standard tube dilution test system. The MIC is reported as micrograms of compound per milliliter.
(§2) Other compounds of our invention have also been tested in the tube dilution test and shown to have in vitro activity against a number of microorganisms. The table below reports tests of a number of exemplary compounds against exemplary microorganisms. The compounds are identified by their numbers in the listing above. The data are reported as the MIC in micrograms per milliliter against the named exemplary microorganisms.

Another assay relates to Escherichia coli. As to the kind of experiment: in vitro tube dilution test (MIC). The format is cell-based.
Description: as §1, §2

Another assay has as its system Pasteurella multocida. As to the kind of experiment: in vitro tube dilution test (MIC). The class given is cell-based.
Description: as §1
(§3) The other preferred compounds of our invention have also been thoroughly tested in the in vitro tube dilution test.
as §2

Another assay relates to Salmonella typhimurium. As to the kind of experiment: Salmonellosis in chickens, single injection to day-old chicks. The format is in vivo. The note with it: for responders at 60 mg/kg: Salmonella enterica, TYPHIMURIUM, 168 h; for chicks protected of the 5-bird treated group: salmonella challenge. The protocol: A number of our 3-nitropyrazoles have been tested against an induced infection of Salmonella typhimurium in day-old chicks. The test was conducted by administering a single injection of 60 mg./kg. of the compounds to each of five chicks. The following day, the chicks were challenged by the subcutaneous injection of a dispersion of S. typhimurium organisms sufficient to kill most or all of the untreated control chicks.
Some of the compounds were tested more than once, in which instances the data are reported as the total survivors from the multiple treatment groups. Untreated, challenged control groups of chicks were tested together with each batch of groups of chicks to which test compounds were administered. Since the mortality of the untreated control chicks varied somewhat from one group of tests to another, results of the untreated control groups are reported below with each test.

The subject of another assay is Vibrio coli 3811. As to the kind of experiment: in vitro tube dilution test (MIC). The class given is cell-based. The following applies: Campylobacter coli.
Description: as §3, §2

The subject of another assay is Salmonella dublin. As to the kind of experiment: in vitro tube dilution test (MIC). The class given is cell-based. The following applies: Salmonella enterica.
Description: as §3, §2

The test system of assay [1] is Staphylococcus aureus sp. 1130. Kind of assay: in vitro tube dilution test (MIC). The class given is cell-based.
Description: as §3, §2

Another assay concerns Streptococcus sp. 80. Kind of assay: in vitro tube dilution test (MIC). The format is cell-based.
Description: as §2

The mark [2] stands for this setting: Mycoplasma gallisepticum, tube dilution, read-out: MIC.
Where [3] appears, read: single injection of 60 mg./kg., seven days, read-out: Survival (converted).
Where [4] appears, read: Vibrio coli 3811, tube dilution, read-out: MIC.
Where [5] appears, read: Salmonella dublin, tube dilution, read-out: MIC.
The mark [6] stands for this setting: Staphylococcus aureus sp. 1130, tube dilution, read-out: MIC.
The mark [7] stands for this setting: Streptococcus sp. 80, tube dilution, read-out: MIC.

`NC(=O)c1cn(CCBr)nc1[N+](=O)[O-]` [Compound 96, 1-(2-bromoethyl)-3-nitropyrazole-4-carboxamide]: the minimum inhibitory concentration (MIC) in the assay on Mycoplasma gallisepticum (setting [2]) is 25 µg/mL (≈ 95 µM); in the assay on Escherichia coli (tube dilution, read-out: MIC), 6.25 µg/mL (≈ 23.8 µM); in the assay on Pasteurella multocida (tube dilution, read-out: MIC), 12.5 µg/mL (≈ 47.5 µM); in the assay on Vibrio coli 3811 (setting [4]), 25 µg/mL (≈ 95 µM); in the assay with Salmonella dublin (setting [5]), 3.12 µg/mL (≈ 11.9 µM); in assay [1] (setting [6]) it was under 1.56 µg/mL. Moreover, the minimum inhibitory concentration (MIC) in the assay with Streptococcus sp. 80 (setting [7]) was over 50 µg/mL. Moreover, the responders at 60 mg/kg in the assay on Salmonella typhimurium (setting [3]) is 100%.
In the case of `Cn1cc(-c2nnc(N)s2)c([N+](=O)[O-])n1` [Compound 102, 2-amino-5-(1-methyl-3-nitro-4-pyrazolyl)-1,3,4-thiadiazole], the MIC in the assay on Mycoplasma gallisepticum (setting [2]) came to 12.5 µg/mL (≈ 55.3 µM); in the assay with Escherichia coli (tube dilution, read-out: MIC), 12.5 µg/mL (≈ 55.3 µM); in the assay with Vibrio coli 3811 (setting [4]), 12.5 µg/mL (≈ 55.3 µM); in the assay on Salmonella dublin (setting [5]), 12.5 µg/mL (≈ 55.3 µM); in assay [1] (setting [6]), 6.25 µg/mL (≈ 27.6 µM); in the assay on Streptococcus sp. 80 (setting [7]), 50 µg/mL (≈ 221 µM). Besides, the “chicks protected of the 5-bird treated group” value (“chicks protected” below) in the assay with Salmonella typhimurium is “at least three chicks of the 5-bird treated group”.
As to `NC(=O)c1cn(C2C=CC(n3cc(C(N)=O)c([N+](=O)[O-])n3)C=C2)nc1[N+](=O)[O-]` (stereo not shown) [Compound 59, 1,1'-(2,5-cyclohexadien-1,4-ylene)-bis(3-nitro-4-pyrazolecarboxamide)], the minimum inhibitory concentration (MIC) amounted to 3.12 µg/mL (≈ 8.04 µM) in the assay on Mycoplasma gallisepticum; 3.12 µg/mL (≈ 8.04 µM) against Escherichia coli; 3.12 µg/mL (≈ 8.04 µM) with Pasteurella multocida; 12.5 µg/mL (≈ 32.2 µM) in the assay with Vibrio coli 3811 (3811); 3.12 µg/mL (≈ 8.04 µM) with Salmonella dublin; 1.56 µg/mL (≈ 4.02 µM) in assay [1] (Staphylococcus aureus, SP.1130). This molecule also returned a minimal inhibitory concentration (MIC) in the assay with Streptococcus sp. 80 (Streptococcus, SP.80) of over 50 µg/mL. The “chicks protected” value in the assay on Salmonella typhimurium is reported as “at least three chicks of the 5-bird treated group”.
For the molecule `NC(=O)OCCn1cc(C(N)=O)c([N+](=O)[O-])n1` [Compound 93, [2-(4-carbamoyl-3-nitropyrazol-1-yl)ethyl] carbamate], the MIC is 12.5 µg/mL (≈ 51.4 µM) with Mycoplasma gallisepticum (setting [2]); 12.5 µg/mL (≈ 51.4 µM) in the assay with Escherichia coli (tube dilution, read-out: MIC); under 1.56 µg/mL in the assay with Pasteurella multocida (tube dilution, read-out: MIC); 50 µg/mL (≈ 206 µM) with Vibrio coli 3811 (setting [4]); 6.25 µg/mL (≈ 25.7 µM) with Salmonella dublin (setting [5]); 3.12 µg/mL (≈ 12.8 µM) in assay [1] (setting [6]). Further, the minimum inhibitory concentration (MIC) in the assay on Streptococcus sp. 80 (setting [7]) is 6.25 µg/mL (≈ 25.7 µM). Further, in the assay with Salmonella typhimurium (read-out: Survival), the responders at 60 mg/kg was 100%.
For `N#Cc1cn(CCO)nc1[N+](=O)[O-]` [Compound 55, 1-(2-hydroxyethyl)-3-nitro-4-pyrazolecarbonitrile], the MIC in the assay on Escherichia coli (tube dilution, read-out: MIC) was found to be 12.5 µg/mL (≈ 68.6 µM); in the assay with Salmonella dublin (setting [5]), 6.25 µg/mL (≈ 34.3 µM); in assay [1] (setting [6]), 6.25 µg/mL (≈ 34.3 µM); in the assay with Streptococcus sp. 80 (setting [7]), 50 µg/mL (≈ 275 µM). In addition, the responders at 60 mg/kg in the assay on Salmonella typhimurium (setting [3]) is 80%.
In the case of `CC(=O)Cn1cc(C(N)=O)c([N+](=O)[O-])n1` [Compound 9, 1-(2-oxopropyl)-3-nitro-4-pyrazolecarboxamide], the MIC with Mycoplasma gallisepticum (setting [2]) was over 50 µg/mL; with Escherichia coli (tube dilution, read-out: MIC) it was 12.5 µg/mL (≈ 58.9 µM); in the assay on Pasteurella multocida (tube dilution, read-out: MIC) it was over 50 µg/mL; in the assay on Vibrio coli 3811 (setting [4]), 6.25 µg/mL (≈ 29.5 µM); with Salmonella dublin (setting [5]), 6.25 µg/mL (≈ 29.5 µM); in assay [1] (setting [6]), 6.25 µg/mL (≈ 29.5 µM). The MIC in the assay on Streptococcus sp. 80 (setting [7]) was 50 µg/mL (≈ 236 µM). Also, the responders at 60 mg/kg in the assay on Salmonella typhimurium (setting [3]) was 100%.
Take `NC(=O)c1cn(CCCCl)nc1[N+](=O)[O-]` [Compound 63, 1-(3-chloropropyl)-3-nitro-4-pyrazolecarboxamide]: the minimal inhibitory concentration (MIC) in the assay on Mycoplasma gallisepticum (setting [2]) was found to be 6.25 µg/mL (≈ 26.9 µM); in the assay on Escherichia coli (tube dilution, read-out: MIC), 50 µg/mL (≈ 215 µM); with Pasteurella multocida (tube dilution, read-out: MIC), 25 µg/mL (≈ 107 µM); in the assay with Vibrio coli 3811 (setting [4]) it was 25 µg/mL (≈ 107 µM); in the assay on Salmonella dublin (setting [5]), 12.5 µg/mL (≈ 53.7 µM); in assay [1] (setting [6]) it was 50 µg/mL (≈ 215 µM). The minimal inhibitory concentration (MIC) in the assay on Streptococcus sp. 80 (setting [7]) was over 50 µg/mL. For the same molecule, in the assay on Salmonella typhimurium (setting [3]), the responders at 60 mg/kg was 40%.
`CCOCCn1cc(C#N)c([N+](=O)[O-])n1` [Compound 84, 1-(2-ethoxyethyl)-3-nitro-4-pyrazolecarbonitrile]: the MIC in the assay with Mycoplasma gallisepticum (setting [2]) turned out to be 50 µg/mL (≈ 238 µM); with Escherichia coli (tube dilution, read-out: MIC), 50 µg/mL (≈ 238 µM); in the assay on Pasteurella multocida (tube dilution, read-out: MIC), 25 µg/mL (≈ 119 µM); with Vibrio coli 3811 (setting [4]) it was 25 µg/mL (≈ 119 µM); in the assay on Salmonella dublin (setting [5]), 50 µg/mL (≈ 238 µM); in assay [1] (setting [6]) it was 50 µg/mL (≈ 238 µM). Also, the MIC in the assay on Streptococcus sp. 80 (setting [7]) amounted to 50 µg/mL (≈ 238 µM). Besides, in the assay on Salmonella typhimurium (setting [3]), the responders at 60 mg/kg is 80%.
In the case of `CC=CCn1cc(C(N)=O)c([N+](=O)[O-])n1` [Compound 75, 1-(2-butenyl)-3-nitro-4-pyrazolecarboxamide], the MIC was over 50 µg/mL in the assay with Mycoplasma gallisepticum (setting [2]); 50 µg/mL (≈ 238 µM) with Escherichia coli (tube dilution, read-out: MIC); 25 µg/mL (≈ 119 µM) with Pasteurella multocida (tube dilution, read-out: MIC); 12.5 µg/mL (≈ 59.5 µM) with Vibrio coli 3811 (setting [4]); 25 µg/mL (≈ 119 µM) with Salmonella dublin (setting [5]); 12.5 µg/mL (≈ 59.5 µM) in assay [1] (setting [6]). Further, in the assay with Streptococcus sp. 80 (setting [7]), the MIC was over 50 µg/mL. Also, in the assay on Salmonella typhimurium (setting [3]), the responders at 60 mg/kg was 60%.
In the case of `CCCCNC(=O)c1cn(CCO)nc1[N+](=O)[O-]` [Compound 85, N-butyl-1-(2-hydroxyethyl)-3-nitro-4-pyrazolecarboxamide], the minimum inhibitory concentration (MIC) is 3.12 µg/mL (≈ 12.2 µM) with Mycoplasma gallisepticum (setting [2]); over 50 µg/mL in the assay with Escherichia coli (tube dilution, read-out: MIC); over 50 µg/mL with Pasteurella multocida (tube dilution, read-out: MIC); 50 µg/mL (≈ 195 µM) in the assay on Vibrio coli 3811 (setting [4]); over 50 µg/mL in the assay with Salmonella dublin (setting [5]); over 50 µg/mL in assay [1] (setting [6]). In the assay with Streptococcus sp. 80 (setting [7]), the MIC is over 50 µg/mL. In addition, the “chicks protected” value with Salmonella typhimurium is “at least three chicks of the 5-bird treated group”.
